In US6806230B1, “Pyrimidine derivatives and herbicides containing them” (Kumiai Chemical Industry Co., Ltd., priority 1999, dated 2004):

How the values were obtained:
Format in all cases: in vivo
barnyard grass (Eo) [1] = assay: Test Example 1: herbicidal effects by flooded paddy field treatment; design: herbicidal effects, Eo (barnyard grass):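 0-5 growth inhibition grade; 5 = over 90%; 4 = 70-90%; 3 = 50-70%; 2 = 30-50%; 1 = 10-30%; 0 = under 10%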; conditions: dose 100 g active ingredient per 10 ares, examined on the 21st day after treatment, standards of Table 44
Procedure: (§1) In a 100 cm^2 plastic pot, paddy field soil was filled and paddled. Then, seeds of barnyard grass (Eo) and monochoria (Mo) were sown, and water was introduced to a depth of 3 cm. Next day, a wettable powder prepared in accordance with Formulation Example 1 was diluted with water and dropwise applied to the water surface. The dose was 100 g of the active ingredient per 10 ares. Thereafter, cultivation was carried out in a green house, and on the 21st day after the treatment, the herbicidal effects were examined in accordance with the standards as identified in Table 44.

monochoria (Mo) [2] = assay: as above; design: herbicidal effects, Mo (monochoria):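 0-5 growth inhibition grade; 5 = over 90%; 4 = 70-90%; 3 = 50-70%; 2 = 30-50%; 1 = 10-30%; 0 = under 10%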; conditions: dose 100 g active ingredient per 10 ares, examined on the 21st day after treatment, standards of Table 44
Procedure: as §1

barnyard grass (Eo) [3] = assay: Test Example 4: selectivity for a crop plant by flooded paddy field treatment; design: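 0-5 growth inhibition grade; 5 = over 90%; 4 = 70-90%; 3 = 50-70%; 2 = 30-50%; 1 = 10-30%; 0 = under 10%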; conditions: barnyard grass, dose 25 gai/10a, 21st day after treatment, index per Table 44
Procedure: as §1, with “pot, a” for “pot,”, “sown, and rice (Or) of second leaf stage was transplanted,” for “sown,”, “was 25” for “was 100”, “standards of” for “standards as identified in”

monochoria (Mo) [4] = assay: as above; design: scale not given here; conditions: monochoria, dose 25 gai/10a, 21st day after treatment, index per Table 44
Procedure: as §1, with “pot, a” for “pot,”, “sown, and rice (Or) of second leaf stage was transplanted,” for “sown,”, “was 25” for “was 100”, “standards of” for “standards as identified in”

rice (Or) = assay: as above; design: scale not given here; conditions: rice transplanted at second leaf stage, dose 25 gai/10a, 21st day after treatment, index per Table 44
Procedure: as §1, with “pot, a” for “pot,”, “sown, and rice (Or) of second leaf stage was transplanted,” for “sown,”, “was 25” for “was 100”, “standards of” for “standards as identified in”

barnyard grass (Ec) = assay: Test Example 2: herbicidal effects by upland soil treatment; design: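 0-5 growth inhibition grade; 5 = over 90%; 4 = 70-90%; 3 = 50-70%; 2 = 30-50%; 1 = 10-30%; 0 = under 10%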; conditions: dose 100 g active ingredient per 10 ares, examined on the 21st day after treatment
Procedure: In a 80 cm^2 plastic pot, upland soil was filled, and seeds of barnyard grass (Ec) and green foxtail (Se) were sown and covered with soil. A wettable powder prepared in accordance with Formulation Example 1 was diluted with water and uniformly applied to the soil surface by means of a small size spray at a rate of 100 l per 10 ares, so that the dose of the active ingredient would be 100 g per 10 ares. Thereafter, cultivation was carried out in a green house, and on the 21st day after the treatment, the herbicidal effects were examined in accordance with the standards as identified in Table 44.

SMILES	herbicidal effects, Eo (barnyard grass) (barnyard grass (Eo) [1])	herbicidal effects, Mo (monochoria) (monochoria (Mo) [2])	Eo (herbicidal effect index) (barnyard grass (Eo) [3])	Mo (herbicidal effect index) (monochoria (Mo) [4])	Or (herbicidal effect index on crop) (rice (Or))	Ec (herbicidal effects, index) (barnyard grass (Ec))
Cc1ccc(CC(=O)N(C)C(c2cncnc2-c2ccccc2)C(C)C)cc1 (racemic) [1-325]	5	5	5	5	1	–
COC(=O)c1ncncc1C(C(C)C)N(C)C(=O)C(C)c1ccc(Cl)cc1 (single isomer, unassigned) [1-593]	5	5	5	4	0	–
CC(c1cncnc1C(C)(C)C)N(C)C(=O)Cc1ccccc1 (racemic) [1-188]	5	5	5	5	0	–
CCOC(OCC)C(c1cncnc1C(C)C)N(C)C(=O)OCc1ccccc1 (racemic) [1-458]	5	5	–	–	–	5
CC(C)C(c1cncnc1-c1ccccc1)N(C)C(=O)Cc1ccc(Cl)cc1 (racemic) [1-324]	5	5	5	5	1	–
CC(C)C(c1cncnc1C(F)(F)F)N(C)C(=O)CSc1ccc(Cl)cc1 (racemic) [1-183]	5	5	5	5	0	–
CC(C)C(c1cncnc1C(F)(F)Cl)N(C)C(=O)Oc1ccc([N+](=O)[O-])cc1 (racemic) [1-640]	5	5	–	–	–	4
CC(C)C(c1cncnc1C=NO)N(C)C(=O)Cc1ccc(Cl)cc1 (racemic) [1-502]	5	5	–	–	–	4
CN(C(=O)Cc1cccc(F)c1)C(c1cncnc1C(F)(F)F)C(C)(C)C (racemic) [Compound 1-265]	5	5	–	–	–	5
CCOC(=O)CN(C(=O)Cc1ccccc1)C(c1cncnc1C(F)(F)F)C(C)C (racemic) [1-476]	5	5	–	–	–	5
CC(C)C(c1cncnc1C(F)(F)F)N(C)C(=O)COc1cncc(Cl)c1 (racemic) [2-44]	5	5	–	–	–	5
CN(C(=O)Cc1cccs1)C(c1cncnc1C(F)(F)F)C(C)(C)C (racemic) [2-13]	5	5	–	–	–	5
CCC(c1cncnc1C(C)C)N(C)C(=O)Cc1ccc(Cl)cc1 (racemic) [1-438]	5	5	–	–	–	5
CC(C)C(c1cncnc1C(F)(F)F)N(C)C(=O)N(C)C1CCCCC1 (racemic) [2-72]	5	5	–	–	–	5
CCN(C(=O)Cc1ccsc1)C(c1cncnc1C(F)(F)F)C(C)C (racemic) [2-10]	5	5	–	–	–	5
CC(C)C(c1cncnc1C(F)(F)F)N(C)C(=O)C(=O)c1ccc(Cl)cc1 (racemic) [1-335]	5	5	–	–	–	5
CON=Cc1ncncc1C(C(C)C)N(C)C(=O)Cc1ccc(C)cc1 (racemic) [1-499]	5	5	–	–	–	5

SMILES	herbicidal effects, Eo (barnyard grass) (barnyard grass (Eo) [1])	herbicidal effects, Mo (monochoria) (monochoria (Mo) [2])	Eo (herbicidal effect index) (barnyard grass (Eo) [3])	Mo (herbicidal effect index) (monochoria (Mo) [4])	Or (herbicidal effect index on crop) (rice (Or))	Ec (herbicidal effects, index) (barnyard grass (Ec))
CC(C)C(c1cncnc1C(F)(F)F)N(C)C(=O)N(C)c1ccsc1 (racemic) [2-63]	5	5	–	–	–	5
CC(C)c1ncncc1C(C(C)C)N(C)C(=O)N(C)c1ccc(F)cc1 (racemic) [1-429]	5	5	–	–	–	5
CN(C(=O)Cc1ccc(F)cc1F)C(c1ccccc1)c1cncnc1C(F)(F)F (racemic) [Compound 1-274]	5	5	–	–	–	5
CCN(C(=O)Cc1cccs1)C(c1cncnc1C(F)(F)F)C(C)C (racemic) [2-9]	5	5	–	–	–	5
CC(C)c1ncncc1C(C(C)C)N(C)C(=O)N(C)c1ccccc1 (racemic) [1-327]	5	5	–	–	–	5
CN(C(=O)Cc1ccc(Cl)cc1F)C(c1cncnc1C(F)(F)F)C(C)(C)C (racemic) [Compound 1-249]	5	5	–	–	–	5
CCC(C)C(c1cncnc1C(F)(F)F)N(C)C(=O)Cc1ccc(C(F)(F)F)cc1 (mixture of isomers) [1-307]	5	5	–	–	–	5
COc1ccc(N(C)C(=O)N(C)C(c2cncnc2C(F)(F)F)C(C)C)cc1 (racemic) [1-460]	5	5	–	–	–	5
CC(C)c1ncncc1C(C(C)C)N(C)C(=O)Cc1ccc(Cl)cc1F (racemic) [Compound 1-254]	5	5	–	–	–	5
Cc1ccc(CC(=O)N(C)C(c2cncnc2C(F)(F)F)C2(C)CC2)s1 (racemic) [2-59]	5	5	–	–	–	5
CC(C)c1ncncc1C(C(C)C)N(C)C(=O)Cc1ccc(C(F)(F)F)cc1 (racemic) [1-310]	5	5	–	–	–	5
Cc1ccccc1C(c1cncnc1C(F)(F)F)N(C)C(=O)Cc1ccccc1 (racemic) [1-550]	5	5	–	–	–	5
C=CCN(C(=O)Cc1ccccc1)C(c1cncnc1C(F)(F)F)C(C)C (racemic) [1-518]	5	5	–	–	–	5
CC(NC(=O)N(C)C(c1cncnc1C(F)(F)F)C(C)C)c1ccccc1 (mixture of isomers) [1-535]	5	5	–	–	–	5
CC(C)C(c1cncnc1C(F)(F)F)N(C)C(=O)Cc1cccs1 (racemic) [2-6]	5	5	–	–	–	5
CC(C)CC(c1cncnc1C(F)(F)F)N(C)C(=O)Cc1ccsc1 (racemic) [2-52]	5	5	–	–	–	5
